From US5516651A, “Nucleic acids encoding calcitonin receptor and uses thereof” (The General Hospital Corporation, priority 1991, dated 1996) come the findings set out here.

Where a chain is given by its changes, count along the chain named.

Data set [1] addresses T1, human CTR (Homo sapiens, UniProt P30988, L447P/S166F).
T1 construct: expressed in transfected cells; host or cells: COS-M6 (COS-7 subclone)
T1 sequence (P30988 25-490 isoform P30988-1 S166F/L463P): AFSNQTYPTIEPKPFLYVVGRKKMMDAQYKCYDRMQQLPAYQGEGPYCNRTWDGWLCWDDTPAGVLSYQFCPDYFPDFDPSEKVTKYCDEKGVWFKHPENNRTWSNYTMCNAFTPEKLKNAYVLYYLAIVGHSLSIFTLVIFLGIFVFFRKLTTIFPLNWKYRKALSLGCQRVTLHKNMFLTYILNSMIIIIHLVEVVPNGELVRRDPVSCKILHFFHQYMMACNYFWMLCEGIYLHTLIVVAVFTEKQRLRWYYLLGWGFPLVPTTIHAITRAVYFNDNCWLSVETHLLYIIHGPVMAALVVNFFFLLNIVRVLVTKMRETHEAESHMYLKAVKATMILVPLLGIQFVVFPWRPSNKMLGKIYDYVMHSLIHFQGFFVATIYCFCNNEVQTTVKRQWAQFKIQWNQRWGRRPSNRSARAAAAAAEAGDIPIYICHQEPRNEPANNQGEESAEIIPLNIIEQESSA
The data set can be described thus: Radioligand binding to COS-M6 cells transfected with human CTR cDNA. Conditions: for competition for binding with radioiodinated salmon or human calcitonin: COS cells transfected with human CTR cDNA. The procedure: (§1) Human small ovarian cell carcinoma cells (BIN-67) were grown in 10 cm petri dishes in Dulbecco's modified Eagle's medium (DMEM) supplemented with 20% (vol/vol) heat inactivated fetal calf serum (GIBCO) and enriched with 25% Ham's F12 medium (GIBCO). Cells at near confluency, were passed approximately twice a week by trypsinization using 0.25% trypsin (GIBCO). Radioligand binding assays were performed in triplicate as follows. The cells were washed, trypsinized and counted in an automated cell counter (Coulter, Hialeah, Fla.). […] The mixture was incubated for 14-16 hours at 4° C. The cells were washed by layering 100 μl of cell suspension over 400 μl of 10% sucrose (wt/vol) in a mini-microfuge tube (Bio-Rad) and centrifuging at maximum speed in a microfuge for three minutes to pellet the cells. The supernatant was removed by aspiration, and the portion of the tube containing the cell pellet was cut off and assayed for radioactive content in a gamma counter (TM Analytic, Elk Grove Village, Ill.). Ligand binding to COS-M6 cells transfected with a human CTR-containing plasmid was performed using the same technique.

For data set [2], the target named is T2, calcitonin binding sites of BIN-67 cells (Homo sapiens, UniProt P30988).
T2 construct: native BIN-67 cells (0.42 nM); endogenous in cells; host or cells: BIN-67 (human ovarian small cell carcinoma)
T2 sequence (P30988 25-490 isoform P30988-1 limits assumed): T1 sequence (P30988 25-490 isoform P30988-1 S166F/L463P) with F142S, P439L
The data set is described as follows: Radioligand binding of salmon and human calcitonin to BIN-67 cells. Conditions: for displacement of radiolabeled salmon or human calcitonin binding: concentrations as high as 10^-5 M. The procedure:
as §1

The target of data set [3] is T1, human CTR. The data set is described as follows: cAMP assay in COS-M6 cells transfected with human CTR cDNA. The class given is cell-based. The procedure: Plasmid DNA was used to transfect COS-M6 cells growing in 10 cm petri dishes (Falcon, Lincoln Park, N.J.) using the DEAE-dextran/chloroquine procedure (Seed and Aruffo, 1987, Proc. Natl. Acad. Sci. USA 84:3365). Forty-eight hours after transfection, cells were incubated in the presence of either iodinated calcitonin for ligand binding studies, or unlabeled calcitonin for the assay of intracellular cAMP.
(§2) BIN-67 cells or COS-M6 cells were grown in 10 cm petri dishes. Forty eight hours before the cAMP assay, the COS-M6 cells were transfected with either human CTR cDNA, or with β-galactosidase cDNA which served as a control. After 24 hours, the transfected COS-M6 cells and the BIN-67 cells were trypsinized and transferred to plastic trays containing 24 16 mm wells (Falcon) at an initial plating density of 5×10^4 cells/well. To test for hormone-induced cAMP responses, the medium was removed from each well and the cells were washed with PBS supplemented with calcium and magnesium. Triplicate groups of cells were incubated for 20 minutes at 37° C. at room temperature with either test buffer [PBS supplemented with calcium, magnesium, 0.25% bovine serum albumin, 11 mM glucose and 1 mM 3-isobutyl-methyl-xanthine (IBMX)], or with 4 mM isoproterenol or peptide hormone at the appropriate concentrations. Reactions were stopped by placing the culture plates in a water bath at 100° C. until all liquid had evaporated. The plates were stored at -20° C. until assayed. The cAMP assay was performed by adding 1.0 ml of 50 mM sodium acetate buffer, pH 6.2, to each well. Dried cells were scraped into this buffer, transferred to glass tubes and centrifuged at 500×g for 10 minutes. Aliquots of supernatant were assayed for cAMP using a radioimmunoassay kit (New England Nuclear/Dupont cAMP [^125 I] Radioimmunoassay Kit, Dupont).
On the technique in general: Cyclic AMP is a second messenger, typically raised through Gs and lowered through Gi signalling.

The target in data set [4] is T3, porcine calcitonin receptor (CTR) (Sus scrofa, UniProt P25117).
T3 construct: expressed in transfected cells; host or cells: COS cells
T3 sequence (P25117 30-482 isoform P25117-2 K186L): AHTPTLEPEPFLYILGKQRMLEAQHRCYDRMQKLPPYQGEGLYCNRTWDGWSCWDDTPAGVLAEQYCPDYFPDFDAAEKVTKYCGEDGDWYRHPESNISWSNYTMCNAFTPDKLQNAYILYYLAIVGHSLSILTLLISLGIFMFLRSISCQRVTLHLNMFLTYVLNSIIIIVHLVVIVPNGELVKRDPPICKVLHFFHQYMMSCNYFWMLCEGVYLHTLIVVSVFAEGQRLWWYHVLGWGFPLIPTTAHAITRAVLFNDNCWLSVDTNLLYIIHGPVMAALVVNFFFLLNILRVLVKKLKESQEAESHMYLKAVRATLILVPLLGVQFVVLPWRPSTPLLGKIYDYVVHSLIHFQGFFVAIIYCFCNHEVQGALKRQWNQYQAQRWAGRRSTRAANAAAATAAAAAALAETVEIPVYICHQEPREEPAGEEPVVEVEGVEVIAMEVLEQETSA
The class given is cell-based. The procedure: (§3) The cloned porcine receptor is functionally coupled to increased intracellular cAMP (FIGS. 2A and 2B). A 4-fold increase in the concentration of intracellular cAMP was observed after incubation of porcine CTR-transfected COS cells with calcitonin, but there was no increase when cells were transfected with β-galactosidase and subsequently stimulated with calcitonin.
as §2, with “The plates were stored at -20° C. until assayed. The cAMP assay was performed by adding 1.0 ml of 50 mM sodium acetate buffer, pH 6.2, to each well. Dried cells were scraped into this buffer, transferred to glass tubes and centrifuged at 500×g for 10 minutes. Aliquots of supernatant were assayed for cAMP using a radioimmunoassay kit (New England Nuclear/Dupont cAMP [^125 I] Radioimmunoassay Kit, Dupont).” left out

Data set [5] concerns β-galactosidase transfected COS cells. The data set can be described thus: cAMP response in mock (β-galactosidase) transfected COS cells. Conditions: for activation of adenylate cyclase / increase of cAMP levels: β-galactosidase (mock) transfected COS cells; for increase in cAMP after stimulation with calcitonin: COS cells transfected with β-galactosidase. The class given is cell-based. The method, then:
as §3, §2

For a further data set, the system named is BIN-67 cells. The data set is described as follows: cAMP assay in BIN-67 cells. The class given is cell-based, human. Conditions: read-out: 50% maximal effective concentration (EC50) for cAMP increase. The procedure: as §2, with “Aliquots of supernatant were assayed for cAMP using a radioimmunoassay kit (New England Nuclear/Dupont cAMP [^125 I] Radioimmunoassay Kit, Dupont).” left out

The target of data set [6] is T3, porcine calcitonin receptor (CTR). The data set is described as follows: Radioiodinated salmon calcitonin binding to COS cells transfected with porcine CTR cDNA. From the text:
(§4) Radioiodinated salmon calcitonin binds to LLC-PK1 cells and to COS cells transfected with the cloned porcine calcitonin receptor (CTR) cDNA (FIGS. 1A and 1B). […] Bovine parathyroid hormone (1-34) [PTH(1-34)]

For data set [7], the target named is T4, calcitonin receptors of LLC-PK1 cells (Sus scrofa, UniProt P25117).
T4 construct: endogenous in cells; host or cells: LLC-PK1
T4 sequence (P25117 30-482 isoform P25117-2 limits assumed): T3 sequence (P25117 30-482 isoform P25117-2 K186L) with L157K
The data set can be described thus: Radioiodinated calcitonin binding to LLC-PK1 cells (Scatchard). Conditions: FIG. 1A, read-out: apparent dissociation constant (Kd). Further details: species or system porcine.
Excerpt: The porcine calcitonin receptor was cloned by expression in COS cells, using a strategy generally described in Lin et al., 1991, Proc. Natl. Acad. Sci. USA 88:3185. […] Pools of mini-prep cDNA (Sambrook et al., 1989, Molecular Cloning: A Laboratory Manual, Cold Spring Harbor Laboratory, N.Y.) containing 10^4 recombinants were transfected into COS cells and screened for binding to radioiodinated salmon calcitonin by emulsion autoradiography (Gearing et al., 1989, EMBO 8:3667). After screening 30 pools representing 3×10^5 clones, two positive pools were identified from which two positive clones with cDNA inserts 2.2 and 3.9 kb in length were isolated. The 2.2 kb clone (3JS-14-FI) was a truncated version of the 3.9 kb clone (2B5-0-I) but encoded the same open reading frame.
as §4

Data set [8] deals with T5, calcitonin receptors of BIN-67 cells (Homo sapiens, UniProt P30988).
T5 construct: native BIN-67 cells (0.42 nM); endogenous in cells; host or cells: BIN-67 (human ovarian small cell carcinoma)
T5 sequence (P30988 25-490 isoform P30988-1 limits assumed): T1 sequence (P30988 25-490 isoform P30988-1 S166F/L463P) with F142S, P439L
The data set is described as follows: Emulsion autoradiography of BIN-67 cells with [125I]-salmon calcitonin. The class given is binding. The procedure: Cells were grown on glass chamber slides (Nunc, Kamstrup, DK). The medium was removed by aspiration and the cells were incubated in binding buffer (PBS supplemented with 11 mM glucose, 0.5% bovine serum albumin) with [^125 I]-salmon calcitonin (200 pM) with or without 10^-6 M unlabeled salmon calcitonin (Sigma). After 5 washes in ice cold PBS supplemented with calcium and magnesium, the cells were fixed in PBS plus 2% formaldehyde, coated with Kodak NTB2 emulsion and exposed for 1-3 weeks at 4° C., after which they were developed and counterstained with Giemsa.

For secretin, the “competition for binding with radioiodinated salmon or human calcitonin” value with human CTR [1] is listed as “failure of other hormones, including PTH or secretin, to compete for binding”. In addition, the “displacement of radiolabeled salmon or human calcitonin binding” value in data set [2] (BIN-67 cells) is recorded as “failed to displace”. For the same compound, the cAMP response entry with human CTR [3] (concentrations up to 10^-6 M) was “failed to induce a response”.

As to `CC(C)NCC(O)c1ccc(O)c(O)c1` (stereo not drawn) [isoproterenol], the cAMP response entry at human CTR [3] (FIG. 7C) is “increased cAMP levels”. In addition, in data set [4] (porcine CTR-transfected cells), the “activation of adenylate cyclase” value is given as “activated adenylate cyclase”. Moreover, the “activation of adenylate cyclase / increase of cAMP levels” value is listed as “increased cAMP levels” in data set [5] and “activated adenylate cyclase” in [5] (listed as Isoproterenol).

Consider human calcitonin, for which the maximal binding in [2] (human calcitonin binding to BIN-67 cells, FIG. 6C) is reported as 1.92×10^4 cpm per sample. In addition, the EC50 in the data set on BIN-67 cells was roughly 3 nM.

As to salmon calcitonin, the Kd is 0.44 nM on human CTR [1] (COS-M6 cells transfected with HCTR-BIN67, read-out: apparent Kd (Scatchard analysis)); roughly 6 nM in data set [6] (COS cells transfected with porcine CTR cDNA, FIG. 1B, read-out: apparent Kd); 0.42 nM in data set [2] (BIN-67 cells, radiolabeled ligand, 4° C., read-out: Kd (Scatchard analysis)); roughly 3 nM in data set [7]. Further, the IC50 in [2] (read-out: apparent 50% inhibitory concentration (IC50), BIN-67 cells, [125I]human calcitonin competed with unlabeled ligand) is 0.6 to 0.7 nM. Moreover, the “increase in cAMP levels” value on human CTR [3] (maximal stimulatory concentrations, 20 minutes, IBMX, FIG. 7C) is reported as roughly 4 fold. Besides, the “competition of [125I]-salmon calcitonin label by excess unlabeled ligand” value in [8] was “competed out all of the label”. The “increase in concentration of intracellular cAMP” value in data set [4] (cos cells, 20 min) worked out at 4 fold. For the same compound, the figures for the “increase in cAMP after stimulation with calcitonin” value in [5] and in [5] (listed as calcitonin) were “failed to increase cAMP levels above control levels” and “no increase”, respectively. For the same compound, the EC50 in the data set with BIN-67 cells is roughly 0.7 nM.

On to Bovine parathyroid hormone (1-34) [PTH], for which, in the data set with human CTR [1], the “competition for binding with radioiodinated salmon or human calcitonin” value is listed as “failure of other hormones, including PTH or secretin, to compete for binding”. In data set [6] (porcine CTR transfectants), the “competition for binding of radioiodinated salmon calcitonin” value is “did not compete”. Also, in data set [2] (BIN-67 cells), the “displacement of radiolabeled salmon or human calcitonin binding” value was “failed to displace”. In the data set with human CTR [3] (FIG. 7C), the cAMP response entry was “failure of PTH to induce a response”.
